pIC50: −log10 of the molar value.
Legend:
HDAC2 = biological target: T1, HDAC2 (Homo sapiens, UniProt Q92769); assay: Inhibition of HDAC enzymes, 12-point concentration-response; type: biochemical
T1 construct: purchased BPS 50002
Experimental: (§1) Compounds were tested in a 12-point concentration-response format against 11 HDAC enzymes as outlined in Table 2A. Test compounds were diluted in 100% DMSO using 3-fold dilution steps. The final compound concentration in the assay ranged from 100 μM to 0.565 nM or as requested. Compounds were tested in a single well for each dilution, and the final concentration of DMSO in all assays was kept at 1%. Reference compounds were tested in an identical manner.

HDAC5 = biological target: T2, HDAC5 (Homo sapiens, UniProt Q9UQL6); assay: as above; type: biochemical
T2 construct: purchased BPS 50045
T2 sequence (Q9UQL6 whole entry): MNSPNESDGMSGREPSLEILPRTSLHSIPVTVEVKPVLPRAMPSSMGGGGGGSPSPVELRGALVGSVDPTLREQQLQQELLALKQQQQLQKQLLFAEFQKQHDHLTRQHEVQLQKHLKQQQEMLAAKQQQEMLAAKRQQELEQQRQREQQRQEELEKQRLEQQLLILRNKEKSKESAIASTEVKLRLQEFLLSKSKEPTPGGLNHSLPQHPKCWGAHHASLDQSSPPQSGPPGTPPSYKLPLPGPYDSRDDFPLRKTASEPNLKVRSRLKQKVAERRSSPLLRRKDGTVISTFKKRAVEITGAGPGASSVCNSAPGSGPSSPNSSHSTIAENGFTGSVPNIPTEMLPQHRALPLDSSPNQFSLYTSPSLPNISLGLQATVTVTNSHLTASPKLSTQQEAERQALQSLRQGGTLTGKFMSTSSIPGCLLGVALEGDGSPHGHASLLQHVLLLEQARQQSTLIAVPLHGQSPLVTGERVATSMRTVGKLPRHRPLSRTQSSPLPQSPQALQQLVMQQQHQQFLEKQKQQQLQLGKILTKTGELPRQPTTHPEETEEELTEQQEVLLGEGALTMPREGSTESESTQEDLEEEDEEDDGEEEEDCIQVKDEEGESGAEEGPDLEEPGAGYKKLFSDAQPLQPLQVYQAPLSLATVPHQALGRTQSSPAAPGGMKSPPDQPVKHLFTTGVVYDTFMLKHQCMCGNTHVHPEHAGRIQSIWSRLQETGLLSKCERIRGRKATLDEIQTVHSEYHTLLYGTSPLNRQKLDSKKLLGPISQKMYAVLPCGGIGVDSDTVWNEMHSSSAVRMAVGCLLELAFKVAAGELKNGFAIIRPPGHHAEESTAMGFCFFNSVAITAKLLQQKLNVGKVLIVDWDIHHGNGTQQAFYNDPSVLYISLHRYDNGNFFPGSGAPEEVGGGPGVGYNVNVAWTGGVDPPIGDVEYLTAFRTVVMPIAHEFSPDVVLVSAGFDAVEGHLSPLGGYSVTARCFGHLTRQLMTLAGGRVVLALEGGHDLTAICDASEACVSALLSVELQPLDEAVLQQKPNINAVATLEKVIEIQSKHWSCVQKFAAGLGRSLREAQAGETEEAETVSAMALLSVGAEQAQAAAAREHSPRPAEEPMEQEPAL
Experimental: as §1

[1] = Tumor uptake and retention (FIG. 2); type: in vivo
Excerpt: Volume of distribution is one of the most important pharmacokinetic properties of a drug candidate and for an anticancer drug can result in increased drug distribution to the tumor.

T1 sequence (Q92769 whole entry): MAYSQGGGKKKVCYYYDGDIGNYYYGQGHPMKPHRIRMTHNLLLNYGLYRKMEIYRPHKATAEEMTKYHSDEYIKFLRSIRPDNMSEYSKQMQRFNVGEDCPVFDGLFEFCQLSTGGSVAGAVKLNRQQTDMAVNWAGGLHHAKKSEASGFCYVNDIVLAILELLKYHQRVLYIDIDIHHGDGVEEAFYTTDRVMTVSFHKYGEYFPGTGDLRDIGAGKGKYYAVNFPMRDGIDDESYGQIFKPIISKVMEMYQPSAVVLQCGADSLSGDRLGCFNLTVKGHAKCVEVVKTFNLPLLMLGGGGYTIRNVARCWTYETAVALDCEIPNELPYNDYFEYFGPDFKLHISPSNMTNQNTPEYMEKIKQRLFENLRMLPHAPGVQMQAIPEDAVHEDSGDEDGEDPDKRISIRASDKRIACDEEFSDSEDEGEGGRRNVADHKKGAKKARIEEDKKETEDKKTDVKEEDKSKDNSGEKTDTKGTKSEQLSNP

Compound	Fold (1b/1a) (HDAC2; ratio of IC50, HDAC2)	Fold (1b/1a) (HDAC5; ratio of IC50, HDAC5)	tumor uptake and retention [1]	pIC50 (HDAC2; HDAC2)	pIC50 (HDAC5; HDAC5)
CC[C@H](C(=O)Nc1ncc(C(=O)NO)s1)c1ccc(OC)cc1 [#1a, (S)—N-hydroxy-2-(2-(4-methoxyphenyl)butanamido)thiazole-5-carboxamide]	6.9	1.4	preferential and significant tumor uptake and retention		
CC[C@@H](C(=O)Nc1ncc(C(=O)NO)s1)c1ccc(OC)cc1 [#1b, (R)—N-hydroxy-2-(2-(4-methoxyphenyl)butanamido)thiazole-5-carboxamide]				7.44	7.00

— patent US11420947B2, “(S)-n-hydroxy-2-(2-(4-methoxyphenyl)butanamido)thiazole-5-carboxamide and pharmaceutically acceptable salts thereof” (TRANSLATIONAL DRUG DEVELOPMENT, LLC, priority 2018, dated 2022)
